{"source": "patent US9206156B2", "about": "“Substituted indole derivatives” (GRÜNENTHAL GMBH, priority 2008, dated 2015)", "key": {"ORL1 receptor": {"target": "T1, ORL1 receptor (Homo sapiens, UniProt P41146)", "T1 construct": "expressed in transfected cells; host or cells: CHO (recombinant CHO-ORL1 cells), membranes", "T1 sequence (P41146 whole entry)": "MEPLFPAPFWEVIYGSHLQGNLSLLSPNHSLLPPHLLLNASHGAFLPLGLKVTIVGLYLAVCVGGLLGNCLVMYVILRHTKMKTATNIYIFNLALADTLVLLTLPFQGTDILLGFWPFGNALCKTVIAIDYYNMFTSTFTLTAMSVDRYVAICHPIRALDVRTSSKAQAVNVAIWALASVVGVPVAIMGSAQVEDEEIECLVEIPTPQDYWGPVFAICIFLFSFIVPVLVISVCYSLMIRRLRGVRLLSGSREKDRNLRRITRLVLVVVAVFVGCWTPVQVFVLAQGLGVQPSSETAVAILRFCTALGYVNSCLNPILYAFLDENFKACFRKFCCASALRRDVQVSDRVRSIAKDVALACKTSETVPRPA", "experiment": "ORL1 receptor binding assay with 3H-nociceptin/orphanin FQ (WGA-SPA beads)", "details": "c=1 μM test substance; 0.5 nM 3H-nociceptin/orphanin FQ; membranes of recombinant CHO-ORL1 cells", "in_short": "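Radioligand displacement on membranes from recombinant CHO-ORL1 cells, 0.5 nM 3H-nociceptin/orphanin FQ, 20 μg membrane protein per batch in 50 mM Hepes pH 7.4, 10 mM MgCl2, 1 mM EDTA. Incubated 1 h at room temperature with WGA-SPA beads, scintillation read. Reported as Ki (nM) or % inhibition at 1 μM.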"}, "human μ-opiate receptor": {"target": "T2, human μ-opiate receptor (Homo sapiens, UniProt P35372)", "T2 construct": "purchased NEN, Zaventem, Belgium RB-HOM; host or cells: CHO-K1 cells (membrane preparation)", "T2 sequence (P35372 whole entry)": "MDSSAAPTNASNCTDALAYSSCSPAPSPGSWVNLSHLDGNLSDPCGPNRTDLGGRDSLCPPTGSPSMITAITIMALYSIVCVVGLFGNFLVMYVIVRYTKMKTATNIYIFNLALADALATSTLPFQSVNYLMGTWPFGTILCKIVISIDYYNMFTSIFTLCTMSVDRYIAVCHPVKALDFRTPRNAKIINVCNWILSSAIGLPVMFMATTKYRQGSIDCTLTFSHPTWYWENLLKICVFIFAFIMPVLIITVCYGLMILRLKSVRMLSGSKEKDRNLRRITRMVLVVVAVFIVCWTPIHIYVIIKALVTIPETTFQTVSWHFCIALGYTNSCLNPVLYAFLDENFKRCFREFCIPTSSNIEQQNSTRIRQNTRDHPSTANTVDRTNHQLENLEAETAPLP", "experiment": "μ-opiate receptor binding assay with [3H] naloxone (WGA-SPA beads)", "details": "1 μmol/l test substance, 1 nmol/l [3H] naloxone, CHO-K1 cell membranes expressing human μ-opiate receptor", "in_short": "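CHO-K1 membranes expressing human μ-opiate receptor incubated 90 min at room temperature with 1 nmol/l [3H]naloxone and WGA-SPA beads in 50 mmol/l Tris-HCl with 0.05% azide, 0.06% BSA. Non-specific binding with 25 μmol/l naloxone; % inhibition at 1 μmol/l, or IC50 converted to Ki via Cheng-Prusoff.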"}}, "data": [{"smiles": "COc1ccc2c(c1)c(CN(C)CCN1CCC(c3ccccc3)(N(C)C)CC1)c(C)n2Cc1ccccc1", "note": "[Example 193, 1-(2-(((1-benzyl-5-methoxy-2-methyl-1H-indol-3-yl)methyl)(methyl)amino)ethyl)-N,N-dimethyl-4-phenylpiperidin-4-amine]", "values": [{"measurement": "inhibition at 1 µM", "setting": "ORL1 receptor", "value": 68, "unit": "%"}, {"measurement": "inhibition at 1 µM", "setting": "human μ-opiate receptor", "value": 82, "unit": "%"}]}, {"smiles": "CN(C(=O)CCc1c[nH]c2ccccc12)C(C(=O)N1CCC(c2cccs2)(N(C)C)CC1)c1ccccc1", "note": "(centres unmarked) [Example 110, N-(2-(4-(dimethylamino)-4-(thiophen-2-yl)piperidin-1-yl)-2-oxo-1-phenylethyl)-3-(1H-indol-3-yl)-N-methylpropanamide]", "values": [{"measurement": "inhibition at 1 µM", "setting": "ORL1 receptor", "value": 60, "unit": "%"}, {"measurement": "inhibition at 1 µM", "setting": "human μ-opiate receptor", "value": 92, "unit": "%"}]}, {"smiles": "CN(C(=O)CCc1cn(C)c2ccccc12)C(C(=O)N1CCC(c2cccs2)(N(C)C)CC1)c1ccccc1", "note": "(centres unmarked) [Example 126, N-(2-(4-(dimethylamino)-4-(thiophen-2-yl)piperidin-1-yl)-2-oxo-1-phenylethyl)-N-methyl-3-(1-methyl-1H-indol-3-yl)propanamide]", "values": [{"measurement": "inhibition at 1 µM", "setting": "ORL1 receptor", "value": 40, "unit": "%"}, {"measurement": "inhibition at 1 µM", "setting": "human μ-opiate receptor", "value": 90, "unit": "%"}]}, {"smiles": "CN(CCCN1CCC(c2ccccc2)(N(C)C)CC1)C(=O)Cc1c[nH]c2cc(F)ccc12", "note": "[Example 45, N-(3-(4-(Dimethylamino)-4-phenylpiperidin-1-yl)propyl)-2-(6-fluoro-1H-indol-3-yl)-N-methylacetamide]", "values": [{"measurement": "inhibition at 1 µM", "setting": "ORL1 receptor", "value": 49, "unit": "%"}, {"measurement": "inhibition at 1 µM", "setting": "human μ-opiate receptor", "value": 82, "unit": "%"}]}, {"smiles": "CCCCC1(N(C)C)CCN(CCN(C)Cc2ccc3cc[nH]c3c2)CC1", "note": "[Example 144, 1-(2-(((1H-indol-6-yl)methyl)(methy)amino)ethyl)-4-butyl-N,N-dimethylpiperidin-4-amine]", "values": [{"measurement": "% Inhibition (ORL1) at 1 μM", "setting": "ORL1 receptor", "value": 39, "unit": "%"}, {"measurement": "% Inhibition (μ) at 1 μM", "setting": "human μ-opiate receptor", "value": 90, "unit": "%"}]}, {"smiles": "CN(C)C1(c2ccccc2)CCN(C(=O)C2CCCN(Cc3ccc4[nH]ccc4c3)C2)CC1", "note": "(centres unmarked) [Example 148, (1-((1H-indol-5-yl)methyl)piperidin-3-yl)(4-(dimethylamino)-4-phenylpiperidin-1-yl)methanone]", "values": [{"measurement": "inhibition at 1 µM", "setting": "ORL1 receptor", "value": 17, "unit": "%"}, {"measurement": "inhibition at 1 µM", "setting": "human μ-opiate receptor", "value": 41, "unit": "%"}]}, {"smiles": "CN(CCN1CCC(c2ccccc2)(N(C)C)CC1)C(=O)c1ccc2ccn(C)c2c1", "note": "[Example 29, N-(2-(4-(Dimethylamino)-4-phenylpiperidin-1-yl)ethyl)-N,1-dimethyl-1H-indole-6-carboxamide]", "values": [{"measurement": "% Inhibition (ORL1) at 1 μM", "setting": "ORL1 receptor", "value": 51, "unit": "%"}, {"measurement": "% Inhibition (μ) at 1 μM", "setting": "human μ-opiate receptor; 1 µM", "value": 94, "unit": "%"}]}, {"smiles": "CN(CCN1CCC(c2ccccc2)(N2CCCC2)CC1)C(=O)c1ccc2ccn(C)c2c1", "note": "[Example 37, N,1-Dimethyl-N-(2-(4-phenyl-4-(pyrrolidin-1-yl)piperidin-1-yl)ethyl)-1H-indole-6-carboxamide]", "values": [{"measurement": "inhibition at 1 µM", "setting": "ORL1 receptor", "value": 16, "unit": "%"}, {"measurement": "inhibition at 1 µM", "setting": "human μ-opiate receptor", "value": 47, "unit": "%"}]}, {"smiles": "CN(CCN1CCC(c2ccccc2)(N2CCCC2)CC1)Cc1ccc2cc[nH]c2c1", "note": "[Example 143, N-((1H-indol-6-yl)methyl)-N-methyl-2-(4-phenyl-4-(pyrrolidin-1-yl)piperidin-1-yl)ethanamine]", "values": [{"measurement": "inhibition at 1 µM", "setting": "ORL1 receptor", "value": 13, "unit": "%"}, {"measurement": "inhibition at 1 µM", "setting": "human μ-opiate receptor", "value": 71, "unit": "%"}]}, {"smiles": "Cc1c(CN(C)CCCN2CCC(c3cccs3)(N(C)C)CC2)c2ccccc2n1C", "note": "[Example 81, 1-(3-(((1,2-Dimethyl-1H-indol-3-yl)methyl)(methyl)amino)propyl)-N,N-dimethyl-4-(thiophen-2-yl)piperidin-4-amine]", "values": [{"measurement": "inhibition at 1 µM", "setting": "ORL1 receptor", "value": 98, "unit": "%"}, {"measurement": "inhibition at 1 µM", "setting": "human μ-opiate receptor", "value": 100, "unit": "%"}]}, {"smiles": "CN(CCN1CCC(c2ccccc2)(N(C)C)CC1)Cc1c(-c2ccccc2)[nH]c2ccccc12", "note": "[Example 71, N,N-Dimethyl-1-(2-(methyl((2-phenyl-1H-indol-3-yl)methyl)amino)ethyl)-4-phenylpipendin-4-amine]", "values": [{"measurement": "inhibition at 1 µM", "setting": "ORL1 receptor", "value": 83, "unit": "%"}, {"measurement": "inhibition at 1 µM", "setting": "human μ-opiate receptor", "value": 96, "unit": "%"}]}, {"smiles": "CN(Cc1ccc2cc[nH]c2c1)C(C(=O)N1CCC(c2cccs2)(N(C)C)CC1)c1ccccc1", "note": "(centres unmarked) [Example 150, 2-(((1H-indol-6-yl)methyl)(methyl)amino)-1-(4-(dimethylamino)-4-(thiophen-2-yl)pipendin-1-yl)-2-phenylethanone]", "values": [{"measurement": "% Inhibition (ORL1) at 1 μM", "setting": "ORL1 receptor", "value": 76, "unit": "%"}, {"measurement": "% Inhibition (μ) at 1 μM", "setting": "human μ-opiate receptor", "value": 54, "unit": "%"}]}, {"smiles": "CN(C)C1(c2ccccc2)CCN(C(=O)CCNC(=O)c2cccc3c2ccn3C)CC1", "note": "[Example 121, N-(3-(4-(dimethylamino)-4-phenylpiperidin-1-yl)-3-oxopropyl)-1-methyl-1H-indole-4-carboxamide]", "values": [{"measurement": "inhibition at 1 µM", "setting": "ORL1 receptor", "value": 44, "unit": "%"}, {"measurement": "inhibition at 1 µM", "setting": "human μ-opiate receptor", "value": 88, "unit": "%"}]}, {"smiles": "CN(C)C1(c2cccs2)CCN(C(=O)CC(NC(=O)c2cccc3c2ccn3C)c2ccccc2)CC1", "note": "(centres unmarked) [Example 108, N-(3-(4-(dimethylamino)-4-(thiophen-2-yl)piperidin-1-yl)-3-oxo-1-phenylpropyl)-1-methyl-1H-indole-4-carboxamide]", "values": [{"measurement": "inhibition at 1 µM", "setting": "ORL1 receptor", "value": 63, "unit": "%"}, {"measurement": "inhibition at 1 µM", "setting": "human μ-opiate receptor", "value": 98, "unit": "%"}]}, {"smiles": "CN(C)C1(c2ccccc2)CCN(C(=O)CCNC(=O)CCc2c[nH]c3ccccc23)CC1", "note": "[Example 98, N-(3-(4-(dimethylamino)-4-phenylpiperidin-1-yl)-3-oxopropyl)-3-(1H-indol-3-yl)propanamide]", "values": [{"measurement": "inhibition at 1 µM", "setting": "ORL1 receptor", "value": 73, "unit": "%"}, {"measurement": "inhibition at 1 µM", "setting": "human μ-opiate receptor", "value": 85, "unit": "%"}]}, {"smiles": "CC(C)C(CC(=O)NCC(=O)N1CCC(c2cccs2)(N(C)C)CC1)c1c[nH]c2ccccc12", "note": "(centres unmarked) [Example 88, N-(2-(4-(dimethylamino)-4-(thiophen-2-yl)piperidin-1-yl)-2-oxoethyl)-3-(1H-indol-3-yl)-4-methylpentanamide]", "values": [{"measurement": "inhibition at 1 µM", "setting": "ORL1 receptor", "value": 92, "unit": "%"}, {"measurement": "inhibition at 1 µM", "setting": "human μ-opiate receptor", "value": 94, "unit": "%"}]}, {"smiles": "CN(CCCN1CCC(c2cccs2)(N(C)C)CC1)C(=O)c1cccc2c1ccn2C", "note": "[Example 30, N-(3-(4-(Dimethylamino)-4-(thiophen-2-yl)piperidin-1-yl)propyl)-N,1-dimethyl-1H-indole-4-carboxamide]", "values": [{"measurement": "inhibition at 1 µM", "setting": "ORL1 receptor", "value": 21, "unit": "%"}, {"measurement": "inhibition at 1 µM", "setting": "human μ-opiate receptor", "value": 78, "unit": "%"}]}, {"smiles": "CN(C)C1(c2cccs2)CCN(C(=O)CC(NCc2ccc3cc[nH]c3c2)c2ccccc2)CC1", "note": "(centres unmarked) [Example 169, 3-((1H-indol-6-yl)methylamino)-1-(4-(dimethylamino)-4-(thiophen-2-yl)piperidin-1-yl)-3-phenylpropan-1-one]", "values": [{"measurement": "inhibition at 1 µM", "setting": "ORL1 receptor", "value": 54, "unit": "%"}, {"measurement": "inhibition at 1 µM", "setting": "human μ-opiate receptor", "value": 91, "unit": "%"}]}, {"smiles": "CN(C)C1(c2ccccc2)CCN(C(=O)CCNCc2c[nH]c3ccc(Br)cc23)CC1", "note": "[Example 162, 3-((5-bromo-1H-indol-3-yl)methylamino)-1-(4-(dimethylamino)-4-phenylpiperidin-1-yl)propan-1-one]", "values": [{"measurement": "inhibition at 1 µM", "setting": "ORL1 receptor", "value": 63, "unit": "%"}, {"measurement": "inhibition at 1 µM", "setting": "human μ-opiate receptor", "value": 80, "unit": "%"}]}, {"smiles": "CN(C)C1(c2ccccc2)CCN(C(=O)C2CCCN(C(=O)c3ccc4ccn(C)c4c3)C2)CC1", "note": "(centres unmarked) [Example 128, (4-(dimethylamino)-4-phenylpiperidin-1-yl)(1-(1-methyl-1H-indole-6-carbonyl)piperidin-3-yl) methanone]", "values": [{"measurement": "inhibition at 1 µM", "setting": "ORL1 receptor", "value": 39, "unit": "%"}, {"measurement": "inhibition at 1 µM", "setting": "human μ-opiate receptor", "value": 56, "unit": "%"}]}, {"smiles": "CN(C)C1(c2ccccc2)CCN(C(=O)C2CN(C(=O)c3ccc4ccn(C)c4c3)c3ccccc32)CC1", "note": "(centres unmarked) [Example 118, (4-(dimethylamino)-4-phenylpiperidin-1-yl)(1-(1-methyl-1H-indole-6-carbonyl)indolin-3-yl)methanone]", "values": [{"measurement": "inhibition at 1 µM", "setting": "ORL1 receptor", "value": 46, "unit": "%"}, {"measurement": "inhibition at 1 µM", "setting": "human μ-opiate receptor", "value": 97, "unit": "%"}]}, {"smiles": "CN(Cc1ccc2[nH]ccc2c1)C(C(=O)N1CCC(c2cccs2)(N(C)C)CC1)c1ccccc1", "note": "(centres unmarked) [Example 147, 2-(((1H-indol-5-yl)methyl)(methyl)amino)-1-(4-(dimethylamino)-4-(thiophen-2-yl)piperidin-1-yl)-2-phenylethanone]", "values": [{"measurement": "inhibition at 1 µM", "setting": "ORL1 receptor", "value": 27, "unit": "%"}, {"measurement": "inhibition at 1 µM", "setting": "human μ-opiate receptor", "value": 47, "unit": "%"}]}]}
